Experimental data reported in PMC6736568, “Discovery of Novel Anti-cryptosporidial Activities From Natural Products by in vitro High-Throughput Phenotypic Screening” (Frontiers in Microbiology, 2019).
Like-named read-outs stand apart in the source and are kept apart here.

Columns and labels:
[1] = system: HCT-8 host cells (Hs18S)
[2] = system: Cryptosporidium parvum; experiment: qRT-PCR assay of the growth of C. parvum in vitro in HCT-8 host cells (primary and secondary screening, EC50); type: cell-based
[3] = primary screening at 10 uM, from Hs18S ΔCT
[4] = primary screening at 10 uM, treated vs control

Compound	Cytotoxicity (%) [1, 3]	Hs18S ΔCT [1, 4]	Inhibition (%) ([2]; primary screening at 10 uM)	% Inhibition (3.3 uM) ([2]; secondary screening at 3.3 uM)	Cytotoxicity (%) ([1]; 10 µM)	Hs18S ΔCT [1]	% Inhibition (3.3 uM) [2]	Inhibition (%) ([2]; 10 µM)
COc1ccc(-c2cc(=O)c3c(O)cc(OC)c(OC)c3o2)c(OC)c1 [5-HYDROXY-2',4',7,8-TETRAMETHOXYFLAVONE]	13.2%	0.20	89.23%	-83%				
C[C@@H]1C[C@H](O)[C@@]2(O)[C@]13CC(=O)OC[C@@]2(C)[C@@](C)(O)C(=O)C3 [PSEUDO-ANISATIN]	9.2%	0.14	-5.73%					
CC(=O)[C@H]1CC[C@H]2[C@@H]3CCC4C[C@H](O)CC[C@]4(C)[C@H]3C[C@H](O)[C@]12C (stereo partly drawn) [DIHYDROXY (3alpha,12alpha)PREGNAN-20-ONE]	-29.0%	-0.37	-32.59%					
SPIRAMYCIN			-12.26%		-12.2%			
COc1ccc2c(=O)c(-c3ccc(O)cc3)coc2c1 [ISOFORMONONETIN]	-21.7%	-0.28	-7.36%					
CN[C@@H]1[C@@H](O[C@H]2O[C@H](CO)[C@@H](N)[C@H](O)[C@H]2O)O[C@H]2C[C@@H](N)[C@@H](O[C@H]3[C@H](O)[C@@H](O)[C@H](N)C[C@@H]3N)O[C@@H]2[C@@H]1O.O=S(=O)(O)O [APRAMYCIN SULFATE]	-3.1%	-0.04	42.68%					
CC1(C)C2CC(=O)[C@]3(C)C(CC[C@@]4(C)[C@H](c5ccoc5)OC(=O)C5OC543)[C@@]2(C)[C@@H](O)C[C@H]1O (some centres unmarked)	4.7%	0.07	69.64%	3%				
C[C@]12CCC(=O)C[C@@H]1CC[C@@H]1[C@@H]2CC[C@]2(C)C(=O)CC[C@@H]12 [5alpha-ANDROSTAN-3,17-DIONE]	-0.1%	0.00	-13.88%					
COc1ccc(-c2oc3cc(OC)c(OC)c(OC)c3c(=O)c2OC)cc1 [3,4',5,6,7-PENTAMETHOXYFLAVONE]	15.6%	0.24	-9.57%					
Cl.c1ccc2c(c1)CN1CCCC1=N2 [DEOXYPEGANINE HYDROCHLORIDE]			36.29%		-4.6	-0.06		
BACITRACIN	1.4%	0.02	-21.81%					
CASANTHRANOL [CASANTHRANOL [cascaroside A shown]]			50.17%		15.4%			
LYSINE (L) HYDROCHLORIDE	-11.0%	-0.15	-22.55%					
POLYMYXIN B SULFATE	-15.1%	-0.20	-11.86%					
C[C@@H](O)[C@H](N)C(=O)O [THREONINE (L)]	-19.5%	-0.26	-20.50%					
CC(C)CCC[C@@H](C)[C@H]1CC[C@H]2[C@@H]3CC=C4C[C@@H](OC(=O)c5ccccc5)CC[C@]4(C)[C@H]3CC[C@]12C [CHOLESTERYL BENZOATE]	5.3%	0.08	-14.05%					
COc1ccc(/C=C/C(=O)c2ccc(O)cc2O)cc1 [2',4'-DIHYDROXY-4-METHOXYCHALCONE]	-99.8%	-1.00	14.88%					
BLEOMYCIN (bleomycin B2 shown)	-16.8%	-0.22	52.96%					

Compound	Cytotoxicity (%) [1, 3]	Hs18S ΔCT [1, 4]	Inhibition (%) ([2]; primary screening at 10 uM)	% Inhibition (3.3 uM) ([2]; secondary screening at 3.3 uM)	Cytotoxicity (%) ([1]; 10 µM)	Hs18S ΔCT [1]	% Inhibition (3.3 uM) [2]	Inhibition (%) ([2]; 10 µM)
CCNC(=O)CC[C@H](N)C(=O)[O-].[K+] [THEANINE POTASSIUM]	-36.3%	-0.45	-54.47%					
COc1cc2c(cc1OC)-c1c(oc3cc(O)cc(O)c3c1=O)CO2 [APOTOXICAROL]	10.7%	0.16	1.64%					
CN1CCC[C@H]1c1cccnc1.O=C(O)C(O)C(O)C(=O)O.O=C(O)C(O)C(O)C(=O)O [NICOTINE BITARTRATE]	-43.3%	-0.52	36.71%					
CC(C)=CCC/C(C)=C/CC/C(C)=C/CC/C(C)=C/CC/C(C)=C/CC/C(C)=C/CC/C(C)=C/CC/C(C)=C/CC/C(C)=C/CO [SOLANESOL]	10.5%	0.16	-25.87%					
AGELASINE (stereochemistry of diterpene unknown)	16.8%	0.27	43.55%					
O=C(O)[C@H](O)[C@@H](O)[C@H](O[C@@H]1O[C@H](CO)[C@H](O)[C@H](O)[C@H]1O)[C@H](O)CO [LACTOBIONIC ACID]	-27.5%	-0.35	-17.48%					
C[C@H]1O[C@H](OC2[C@@H](O)[C@@H](O)C(O)[C@H](O)[C@H]2O)[C@@H](N)C[C@@H]1N=C(N)C(=O)O.Cl (some centres unmarked) [KASUGAMYCIN HYDROCHLORIDE]	-1.2%	-0.02	47.53%					
C[C@@H]1CC[C@@]2(OC1)O[C@H]1C[C@H]3[C@@H]4CC[C@H]5C[C@@H](O)CC[C@]5(C)C4=CC[C@]3(C)[C@H]1[C@@H]2C [3beta-HYDROXYISOALLOSPIROST-9(11)-ENE]	-12.6%	-0.17	6.79%					
COc1ccc(-c2coc3cc(O)cc(O)c3c2=O)cc1 [BIOCHANIN A]	6.9%	0.10	14.14%					
CC1=C(/C=C/C(C)=C/C=C/C(C)=C/C=C/C=C(C)/C=C/C=C(C)/C=C/C2=C(C)C(=O)CCC2(C)C)C(C)(C)CCC1=O [CANTHAXANTHIN, CANTHAXANTHIN (euglenanone)]			52.72%		-19.8%			
COc1ccc(-c2coc3cc(OC)ccc3c2=O)cc1 [7,4'-DIMETHOXYISOFLAVONE]	3.0%	0.04	1.31%					
COc1ccc2c(c1OC)C(=O)O[C@@H]2[C@H]1c2cc3c(cc2CCN1C)OCO3 [HYDRASTINE (1R, 9S)]		-0.18	-23.62%					
CC[C@H](C=C[C@@H](C)[C@H]1CC[C@H]2[C@@H]3CCC4=CC(=O)CC[C@]4(C)[C@H]3CC[C@]12C)C(C)C					27.4	0.46	-6	64.69
C[C@H]1CC[C@@H](C(C)(C)O)CC2=C1CC[C@@H]2C [GUAIOL(-)]					12.7	0.20		-22.71
CYANOCOBALAMIN	-24.5%	-0.32	16.98%					
COc1ccc(-c2oc3ccccc3c(=O)c2OC)cc1 [3,4'-DIMETHOXYFLAVONE]	22.3%	0.36	-22.87%					
COC(=O)/C(C)=C\C[C@@]12OC(C)(C)[C@@H]3C[C@@H](C=C4C(=O)c5c(OC)c6c(c(CC=C(C)C)c5O[C@]431)O[C@](C)(CCC=C(C)C)C=C6)C2=O [METHYL GAMBOGATE METHYL ETHER]	22.4%	0.37	23.61%					
